Measurements as given in PMC6204753, “Non-native autoinducer analogs capable of modulating the SdiA quorum sensing receptor in Salmonella enterica serovar Typhimurium” (Beilstein Journal of Organic Chemistry, 2018).

Target: SdiA (Salmonella enterica subsp. enterica serovar Typhimurium, UniProt O66040)
Assay: S. Typhimurium-pJNS25 SdiA reporter, competitive antagonism against 10 nM L-OOHL
Assay type: cell-based
Conditions: average ± STD, change in activity from 10 nM 2 (OOHL); for Antagonism 1 μM Inhibition (%): 1 μM compound; for Antagonism 100 μM Inhibition (%): 100 μM compound
Source text: Biological assays for SdiA activity. Cell-based reporter strains that rely on detecting the transcriptional activity of LuxR-type receptors are commonly used to assess the activity of exogenous ligands. We used the S. Typhimurium-pJNS25 reporter strain constructed by Smith and Ahmer and also used by Janssens et al. to examine SdiA activity. This strain naturally produces SdiA and contains a reporter plasmid with the promoter region for srgE fused to the luxABCDE operon of V. fischeri (see Experimental section for details of all strains and plasmids). SdiA activity is thus reported by the production of luciferase and resulting bioluminescence. We also prepared an SdiA reporter in E. coli (JLD271-pJN105SE-pSC11SE) to examine S. Typhimurium SdiA activity in an alternate background and with a different reporter gene output. […] This reporter construct uses an arabinose inducible promoter to produce S. Typhimurium SdiA and the promoter region for srgE fused to lacZ to report SdiA activity. SdiA activity is then measured using standard β-galactosidase assays. In both reporter strains, signal was normalized to the difference between the positive control (10 μM OOHL) and the negative control (1% DMSO; no compound).
Salmonella SdiA reporter assay. S. Typhimurium-pJNS25 was grown 16–18 h overnight in LB, diluted 1:100 in fresh LB medium, and then incubated for 6 h at 37 °C with shaking at 200 rpm in the presence of compounds (1% DMSO). […] All compounds were screened at 100 μM and 1 μM in triplicate in agonism and antagonism assays. […] Dose–response analyses were performed by preparing dilutions of compounds in DMSO and testing each concentration in the agonism or antagonism assays. Competition dose–response assays (data in Figure 5) were performed in the same manner as the antagonism assays, except instead of OOHL being added to the subculture, the antagonist being tested was added. Non-linear regression curve fits were generated using GraphPad Prism software (version 6) using variable slope (four parameter) dose–response analysis.

Sequence of SdiA (O66040 entry or part of it): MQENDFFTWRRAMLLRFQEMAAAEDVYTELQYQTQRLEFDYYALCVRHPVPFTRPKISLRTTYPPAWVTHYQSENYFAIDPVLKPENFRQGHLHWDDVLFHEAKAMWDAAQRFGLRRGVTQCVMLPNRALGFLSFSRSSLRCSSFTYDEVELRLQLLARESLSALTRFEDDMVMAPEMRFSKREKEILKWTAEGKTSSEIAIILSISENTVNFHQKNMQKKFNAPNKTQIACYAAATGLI

O=C(N[C@H]1CCOC1=O)C1CCCCC1 [S5]
Antagonism 1 μM Inhibition (%): 19 ± 4%
Antagonism 100 μM Inhibition (%): 13 ± 10%

O=C(Cc1ccccc1[N+](=O)[O-])N[C@H]1CCOC1=O [C15]
Antagonism 1 μM Inhibition (%): 5 ± 2%
Antagonism 100 μM Inhibition (%): -17 ± 18%

O=C(CCc1ccccc1)N[C@H]1CCOC1=O [B9]
Antagonism 1 μM Inhibition (%): 13 ± 10%
Antagonism 100 μM Inhibition (%): 18 ± 14%

O=C(Cc1ccccc1Cl)N[C@H]1CCOC1=O [C7]
Antagonism 1 μM Inhibition (%): 22 ± 6%
Antagonism 100 μM Inhibition (%): -32 ± 5%

CCCCCCCCCC(=O)N[C@H]1CCOC1=O [A4]
Antagonism 1 μM Inhibition (%): 12 ± 19%
Antagonism 100 μM Inhibition (%): 18 ± 7%

O=C(N[C@H]1CCOC1=O)C1CCCC1 [S4]
Antagonism 1 μM Inhibition (%): 27 ± 11%
Antagonism 100 μM Inhibition (%): -8 ± 11%

CCCCCS(=O)(=O)N[C@H]1CCOC1=O [A9]
Antagonism 1 μM Inhibition (%): 10 ± 9%
Antagonism 100 μM Inhibition (%): 13 ± 2%

COc1cc(C(C)=O)ccc1OCC(=O)N[C@H]1CCOC1=O [D16]
Antagonism 1 μM Inhibition (%): 19 ± 6%
Antagonism 100 μM Inhibition (%): 3 ± 6%

CCCCCC(O)CC(=O)N[C@H]1CCOC1=O (stereo partly shown) [H2]
Antagonism 1 μM Inhibition (%): 8 ± 5%
Antagonism 100 μM Inhibition (%): 12 ± 16%

CCCCCCCCCCCCCC(=O)CC(=O)N[C@H]1CCOC1=O [H25]
Antagonism 1 μM Inhibition (%): 1 ± 13%
Antagonism 100 μM Inhibition (%): -9 ± 15%

O=C(CCc1c[nH]c2ccccc12)N[C@H]1CCOC1=O [B14]
Antagonism 1 μM Inhibition (%): 10 ± 2%
Antagonism 100 μM Inhibition (%): 18 ± 5%

O=C(CCc1ccc([N+](=O)[O-])cc1)N[C@H]1CCOC1=O [E37]
Antagonism 1 μM Inhibition (%): 34 ± 5%
Antagonism 100 μM Inhibition (%): 23 ± 5%

O=C(Cc1cc(C(F)(F)F)cc(C(F)(F)F)c1)N[C@H]1CCOC1=O [E9]
Antagonism 1 μM Inhibition (%): 18 ± 8%
Antagonism 100 μM Inhibition (%): 21 ± 8%

CCCCCOc1ccc(C(=O)N[C@H]2CCOC2=O)cc1 [R5]
Antagonism 1 μM Inhibition (%): 10 ± 18%
Antagonism 100 μM Inhibition (%): -1 ± 9%

O=C(CCc1ccc2c(c1)OCO2)N[C@H]1CCOC1=O [E39]
Antagonism 1 μM Inhibition (%): 10 ± 15%
Antagonism 100 μM Inhibition (%): 12 ± 3%

O=C(CC(O)Cc1cccc(I)c1)N[C@H]1CCOC1=O (stereo partly shown) [H15]
Antagonism 1 μM Inhibition (%): 6 ± 14%
Antagonism 100 μM Inhibition (%): 19 ± 11%

O=C(Cc1ccc(O)cc1)N[C@H]1CCOC1=O [C23]
Antagonism 1 μM Inhibition (%): 6 ± 2%
Antagonism 100 μM Inhibition (%): 16 ± 3%

O=C(Cc1ccccc1)N[C@H]1CCSC1=O [F9]
Antagonism 1 μM Inhibition (%): -1 ± 4%
Antagonism 100 μM Inhibition (%): -13 ± 1%

O=C(Cc1ccc(Cl)cc1)N[C@H]1CCOC1=O [C5]
Antagonism 1 μM Inhibition (%): 13 ± 6%
Antagonism 100 μM Inhibition (%): 18 ± 7%

CCOc1ccc(CC(=O)N[C@H]2CCOC2=O)cc1 [C25]
Antagonism 1 μM Inhibition (%): 12 ± 8%
Antagonism 100 μM Inhibition (%): 7 ± 5%

CCCCCCCCCC(=O)CC(=O)N[C@H]1CCOC1=O [compound 1, reference compound]
Antagonism 1 μM Inhibition (%): 2 ± 17%
Antagonism 100 μM Inhibition (%): 15 ± 16%

Cc1nc(-c2ccccc2)oc1CC(=O)N[C@H]1CCOC1=O [D4]
Antagonism 1 μM Inhibition (%): 28 ± 13%
Antagonism 100 μM Inhibition (%): -6 ± 4%

O=C(Cc1c(F)c(F)c(F)c(F)c1F)N[C@H]1CCOC1=O [C16]
Antagonism 1 μM Inhibition (%): 5 ± 3%
Antagonism 100 μM Inhibition (%): -32 ± 18%

CCCCCCCCCC(=O)CC(=O)NC1CCCCC1=O (stereo not shown) [compound 15, reference compound]
Antagonism 1 μM Inhibition (%): 16 ± 16%
Antagonism 100 μM Inhibition (%): 13 ± 8%

O=C(Cc1c[nH]c2ccccc12)N[C@H]1CCOC1=O [B13]
Antagonism 1 μM Inhibition (%): 8 ± 10%
Antagonism 100 μM Inhibition (%): 13 ± 13%

COc1ccccc1C1CCN(c2ccc(/C=C/C(=O)N[C@H]3CCOC3=O)cc2[N+](=O)[O-])CC1 [D18]
Antagonism 1 μM Inhibition (%): 18 ± 8%
Antagonism 100 μM Inhibition (%): 32 ± 5%

CCCCOc1ccc(C(=O)N[C@H]2CCOC2=O)cc1 [R4]
Antagonism 1 μM Inhibition (%): 23 ± 9%
Antagonism 100 μM Inhibition (%): 11 ± 12%

CCCCCCCCc1ccc(C(=O)N[C@H]2CCOC2=O)cc1 [D13]
Antagonism 1 μM Inhibition (%): 17 ± 7%
Antagonism 100 μM Inhibition (%): 23 ± 7%

CCCCCCCCCCCCCC(O)CC(=O)N[C@H]1CCOC1=O (stereo partly shown) [H6]
Antagonism 1 μM Inhibition (%): 15 ± 1%
Antagonism 100 μM Inhibition (%): 15 ± 13%

COc1ccc(CCC(=O)N[C@H]2CCOC2=O)cc1 [E28]
Antagonism 1 μM Inhibition (%): 11 ± 18%
Antagonism 100 μM Inhibition (%): 6 ± 15%

O=C(Cc1ccc(C(F)(F)F)cc1)N[C@H]1CCOC1=O [C20]
Antagonism 1 μM Inhibition (%): 15 ± 10%
Antagonism 100 μM Inhibition (%): 8 ± 6%

O=C(N[C@H]1CCOC1=O)c1ccc2c(c1)OCO2 [Q11]
Antagonism 1 μM Inhibition (%): 7 ± 7%
Antagonism 100 μM Inhibition (%): -2 ± 12%

O=C(CCc1cccs1)N[C@H]1CCOC1=O [D3]
Antagonism 1 μM Inhibition (%): 10 ± 2%
Antagonism 100 μM Inhibition (%): 6 ± 9%

CCCCCCCCCC(=O)NC1CCCC1 [compound 17, reference compound]
Antagonism 1 μM Inhibition (%): 26 ± 12%
Antagonism 100 μM Inhibition (%): 28 ± 5%

O=C(CC(=O)N[C@H]1CCOC1=O)Cc1cccc(Cl)c1 [H23]
Antagonism 1 μM Inhibition (%): 12 ± 8%
Antagonism 100 μM Inhibition (%): 1 ± 9%

COc1cccc(CC(=O)N[C@H]2CCOC2=O)c1 [E2]
Antagonism 1 μM Inhibition (%): -5 ± 1%
Antagonism 100 μM Inhibition (%): -8 ± 14%

O=C(Cc1ccccc1F)N[C@H]1CCOC1=O [C4]
Antagonism 1 μM Inhibition (%): 3 ± 6%
Antagonism 100 μM Inhibition (%): -31 ± 10%

Nc1ccc(CC(=O)N[C@H]2CCOC2=O)cc1 [C21]
Antagonism 1 μM Inhibition (%): 4 ± 12%
Antagonism 100 μM Inhibition (%): 13 ± 4%

CCCCCC(=O)N[C@H]1CCSC1=O [F7]
Antagonism 1 μM Inhibition (%): 7 ± 9%
Antagonism 100 μM Inhibition (%): -12 ± 4%

O=C(Cc1ccc2ccccc2c1)N[C@H]1CCOC1=O [E12]
Antagonism 1 μM Inhibition (%): -13 ± 9%
Antagonism 100 μM Inhibition (%): 0 ± 15%

O=C(COc1cccc([N+](=O)[O-])c1)N[C@H]1CCOC1=O [E25]
Antagonism 1 μM Inhibition (%): 5 ± 18%
Antagonism 100 μM Inhibition (%): 9 ± 12%

O=C(CCc1cccc(Br)c1)N[C@H]1CCOC1=O [E31]
Antagonism 1 μM Inhibition (%): 13 ± 10%
Antagonism 100 μM Inhibition (%): 6 ± 6%

CCCCCCC(=O)N[C@H]1CCOC1=O [compound 4, reference compound]
Antagonism 1 μM Inhibition (%): 26 ± 4%
Antagonism 100 μM Inhibition (%): 16 ± 5%

O=C(CCCc1ccccc1)NC1CCOC1=O (stereo not shown) [B3]
Antagonism 1 μM Inhibition (%): 34 ± 5%
Antagonism 100 μM Inhibition (%): 16 ± 3%

O=C(Cc1cccc([N+](=O)[O-])c1)NCc1cccc([N+](=O)[O-])c1 [F55]
Antagonism 1 μM Inhibition (%): 11 ± 4%
Antagonism 100 μM Inhibition (%): 26 ± 7%

O=C(Cc1ccc([N+](=O)[O-])cc1)N[C@H]1CCOC1=O [C13]
Antagonism 1 μM Inhibition (%): 24 ± 4%
Antagonism 100 μM Inhibition (%): 14 ± 9%

CC(C)(C)OC(=O)Nc1ccc(CC(=O)N[C@H]2CCOC2=O)cc1 [C22]
Antagonism 1 μM Inhibition (%): -9 ± 2%
Antagonism 100 μM Inhibition (%): 6 ± 6%

Cc1ccc(C(=O)CCC(=O)N[C@H]2CCOC2=O)cc1 [D6]
Antagonism 1 μM Inhibition (%): 21 ± 19%
Antagonism 100 μM Inhibition (%): 3 ± 12%

CC(C)(C)OC(=O)Nc1ccc(C(=O)N[C@H]2CCOC2=O)cc1 [Q13]
Antagonism 1 μM Inhibition (%): 19 ± 8%
Antagonism 100 μM Inhibition (%): -14 ± 2%

O=C(Cc1ccc(Br)cc1)N[C@H]1CCOC1=O [compound 7, reference compound]
Antagonism 1 μM Inhibition (%): 26 ± 9%
Antagonism 100 μM Inhibition (%): 21 ± 10%
